According to patent publication US20250026741A1, “INHIBITORS OF THE ONCOGENIC SHP2 PHOSPHATASE AND USES THEREOF” (Sanford Burnham Prebys Medical Discovery Institute, priority 2021, published 2025):
Like-named read-outs stand apart in the source and are kept apart here.

Legend:
[1] = molecular target: full-length SHP2-E76K oncogenic mutant (Homo sapiens (Human), UniProt Q06124, E76K); assay: DiFMUP fluorescence intensity phosphatase inhibition assay, SHP2-E76K; assay type: biochemical
Text: (§1) To test the synthesized compounds for their potential to inhibit SHP2 activity, a fluorescence intensity-based assay using 6,8-difluoro-4-methylumbelliferyl phosphate (DiFMUP) as the substrate was adapted for three recombinant SHP2 constructs: 1) the SHP2 catalytic domain (SHP2cat; residues 248-527), 2) the full-length SHP2-E76K oncogenic mutant, and 3) the full-length SHP2 wild-type (SHP2-WT). The recombinant SHP2 proteins were expressed and purified. A dually phosphorylated peptide derived from the insulin receptor substrate 1 (IRS-1) served as a surrogate binding protein and was used to activate SHP2-WT. […] Michaelis-Menten experiments to determine the DiFMUP Michaelis-Menten constant (Kmn) for each SHP2 construct were performed and yielded the following values: SHP2-WT, Km=60 μM; SHP2-E76K, Km=20 μM; SHP2cat, Km=20 μM. Relative maximum rates (Vmax) of the DiFMUP reactions were as follows: SHP2-WT, Vmax=871 AFU/min; SHP2-E76K, Vmax, =2730 AFU/min; SHP2cat, Vmax=2912 AFU/min. IC50 values for each compound were determined from initial rates in 10-point dose-response assays using DiFMUP at a concentration corresponding to its Km value for the respective SHP2 construct.
(§2) SHP2 inhibitors were tested at room temperature (RT) in a 384-well plate format standard phosphatase fluorescence intensity assay using DiFMUP (Invitrogen/Thermo Fisher Scientific, Carlsbad, CA) as a substrate and a total reaction volume of 25 μL. SHP2 inhibitors or vehicle (DMSO) were spotted in triplicate into a black Greiner FLUOTRAC™ 200 384-well microplate (#781076, Greiner) for a 10-point dose-response assay using an Echo®555 Liquid Handler (Labcyte, Inc., San Jose, CA). PTP working solutions were prepared at a 0.625 nM concentration (for a final concentration of 0.5 nM) in buffer containing 50 mM Bis-Tris pH 6.0, 50 mM NaCl, 5 mM DTT, and 0.01% Tween® 20. Prior to the assay, a dually phosphorylated insulin receptor substrate 1 (IRS-1) peptide [625 nM (500 nMfinal) (30)] was added to full-length WT SHP2 working solutions and incubated for 20 min. DiFMUP working solutions at 5× final concentration were prepared in 50 mM Bis-Tris pH 6.0, 50 mMNaCl, and 0.01% Tween 20. 20 μL of PTP working solution was dispensed into the microplate and incubated with inhibitor for 20 min at RT. […] The reaction was initiated by addition of 5 μL DiFMUP working solutions. Fluorescence intensity was measured in kinetic mode (every minute for 7 or 10 min) using a Tecan Spark® Multimode Microplate Reader (Tecan, Groedig, Austria) with an excitation wavelength of 360 nm and an emission wavelength of 460 nm. The initial rates were determined from the linear progression curves of the PTP reaction. The nonenzymatic hydrolysis of the substrate was corrected by using a control without addition of enzyme. IC50 values were calculated from the corrected initial rates by nonlinear regression using the program GraphPad Prism (GraphPad Software, Inc., San Diego, CA) Version 8. Dose-response inhibition assays of SHP2cat using the substrate OMFP were performed similarly as described above for DiFMUP. OMFP was used at a concentration corresponding to its Km value for SHP2cat (50 μM final). Fluorescence intensity was measured in kinetic mode (every minute for 10 min) using a Tecan Spark Multimode Microplate Reader with an excitation wavelength of 485 nm and an emission wavelength of 535 nm. Initial rates were determined and IC50 vales calculated as described above.

PTP1B catalytic domain = PTP1B catalytic domain (Homo sapiens (Human), UniProt P18031); assay: DiFMUP phosphatase inhibition assay, PTP1B; assay type: biochemical; details: catalytic domain, DiFMUP at Km (25 μM)
Experimental: (§3) Selectivity is one of the biggest challenges in PTP inhibitor development. […] Similar to SHP2, we adapted a 384-well plate format DiFMUP assay for recombinant PTP1B and STEP and performed Michaelis-Menten experiments to determine DiFMUP Km values for each phosphatase. IC50 values of our inhibitors for PTP1B and STEP were determined in 10-point dose-response assays with DiFMUP used at the concentration corresponding to the respective Km value. […] Other inhibitors with good relative selectivity for SHP2 included #02 (13-fold selective over PTP1B; 73-fold selective over STEP) and #05 (5-fold selective over PTP1B; >71-fold selective over STEP).
as §2

[2] = molecular target: striatal-enriched tyrosine phosphatase (STEP) catalytic domain (Homo sapiens (Human), UniProt P54829); assay: DiFMUP phosphatase inhibition assay, STEP; assay type: biochemical; details: catalytic domain, DiFMUP at Km (4 μM)
Experimental: as §3, §2

[3] = molecular target: SHP2 catalytic domain (SHP2cat; residues 248-527) (Homo sapiens (Human), UniProt Q06124); assay: DiFMUP fluorescence intensity phosphatase inhibition assay, SHP2cat; assay type: biochemical
Text: as §1, §2

[4] = molecular target: full-length SHP2 wild-type (SHP2-WT) (Homo sapiens (Human), UniProt Q06124); assay: DiFMUP fluorescence intensity phosphatase inhibition assay, SHP2-WT activated with IRS-1 peptide; assay type: biochemical; details: DiFMUP at Km (60 μM), IRS-1 peptide activated
Text: as §1, §2

[5] = tested on: Kasumi-1 acute myeloid leukemia (AML) cells; assay: Cell viability assay (CellTiter-Glo), Kasumi-1; assay type: cell-based; details: Kasumi-1 cells, various concentrations, 3 d
Text: (§4) Inhibition of SHP2 has been reported to inhibit the growth of cancer cells including Kasumi-1 acute myeloid leukemia (AML) and KYSE-520 esophageal cancer cells. […] Cell viability is shown as a percentage of the vehicle (DMSO) control and represents the mean±SD. B) #02 dose-response curves in cell viability assays using Kasumi-1, KYSE-520, MOLM-13, and […] cells after 3 d in culture. The percentages compared to DMSO vehicle control were curve fitted using nonlinear regression (log[inhibitor] vs. normalized response, variable slope) and represent the mean±SD. C) Cell viability of […] and MDA-MB-468 triple-negative breast cancer (TNBC) cells in the presence of various concentrations of #02 or the SHP2 allosteric inhibitor SHP099 after 5 d in culture. Cell viability is shown as a percentage of DMSO vehicle control, representing mean±SD, and curve fitted as in B). D) Colony formation assay (11 d) of […] and MDA-MB-468 TNBC cells in the presence of various concentrations of #02 or the SHP2 allosteric inhibitor SHP099. E) Phospho-ERK1/2 (p-ERK1/2) immunoblot analysis from total cell lysates of MOLM-13 AML cells treated with #02 at the indicated concentrations, or with SHP2 allosteric inhibitor RMC-4550 (RMC, 1 μM) for 3 h or 24 h. The quantitation of p-ERK1/2 levels is shown as the percentage of the DMSO (vehicle) control and represents data from three independent experiments (mean±SD). F) Viability of AML patient-derived cells in the presence of 10 μM #02 or 10 μM SHP2 allosteric inhibitor RMC-4550 after 2 d, 4 d, or 6 d in culture. Cell viability is shown as a percentage of the DMSO vehicle control and represents the mean±SD (*p<0.05; **p<0.01; ****p<0.0001; unpaired test with Welch's correction) G) Viability of MOLM-13 cells and MOLM-13-Cas9-mCherry cells with SHP2 knockout (KO) in the presence of #01, #02, and allosteric inhibitor SHP099 at various concentrations (10-point dose-response). The percentages compared to the DMSO vehicle control were curve fitted using nonlinear regression (log[inhibitor] vs. normalized response, variable slope) and represent the mean±SD. SHP2 protein levels in regular MOLM-13 cells (WT), MOLM-13-Cas9-mCherry cells (Cas9), and MOLM-13-Cas9-mCherry cells with SHP2 KO (SHP2 KO) were evaluated by immunoblot analysis using SHP2 antibodies.
(§5) Viability of AML, esophageal carcinoma, and TF-1 cells was assessed using the ATP-depletion assay CellTiter-Glo® (Promega). Cells were harvested at 1×10^6/mL to 2×10^6 cells/mL with cell numbers determined by trypan blue using the Countess Cell counter (Thermo Scientific) and resuspended in culture media. […] Luminescence was read on a Tecan Spark® Multimode Microplate Reader and data analyzed using Graph Pad Prism software.

[6] = tested on: KYSE-520 esophageal cancer cells; assay: Cell viability assay (CellTiter-Glo), KYSE-520; assay type: cell-based; details: KYSE-520 cells, various concentrations, 3 d
Text: as §4, §5

[7] = DiFMUP at Km (20 μM), 10-point dose-response, read-out: SHP2-E76K IC50
[8] = DiFMUP at Km (20 μM), read-out: SHP2cat IC50

Chain of full-length SHP2-E76K oncogenic mutant (Q06124 whole entry E76K, the tested form may be a part): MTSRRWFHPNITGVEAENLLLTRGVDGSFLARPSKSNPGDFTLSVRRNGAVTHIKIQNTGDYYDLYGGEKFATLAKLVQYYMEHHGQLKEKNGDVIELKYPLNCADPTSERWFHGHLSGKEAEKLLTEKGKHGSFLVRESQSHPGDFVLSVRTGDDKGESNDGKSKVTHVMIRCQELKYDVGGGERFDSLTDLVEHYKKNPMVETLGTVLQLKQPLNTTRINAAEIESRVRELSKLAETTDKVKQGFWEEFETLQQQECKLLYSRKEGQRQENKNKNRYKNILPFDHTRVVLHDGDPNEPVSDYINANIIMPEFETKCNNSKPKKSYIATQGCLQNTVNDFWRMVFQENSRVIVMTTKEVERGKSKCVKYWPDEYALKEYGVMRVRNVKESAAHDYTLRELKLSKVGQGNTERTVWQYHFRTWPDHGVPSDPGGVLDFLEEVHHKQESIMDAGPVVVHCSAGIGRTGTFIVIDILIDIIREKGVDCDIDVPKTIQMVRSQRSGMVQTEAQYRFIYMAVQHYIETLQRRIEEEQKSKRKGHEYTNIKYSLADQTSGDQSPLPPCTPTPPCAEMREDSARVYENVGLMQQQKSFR
Chain of full-length SHP2 wild-type (SHP2-WT) (Q06124 whole entry, other chains not shown): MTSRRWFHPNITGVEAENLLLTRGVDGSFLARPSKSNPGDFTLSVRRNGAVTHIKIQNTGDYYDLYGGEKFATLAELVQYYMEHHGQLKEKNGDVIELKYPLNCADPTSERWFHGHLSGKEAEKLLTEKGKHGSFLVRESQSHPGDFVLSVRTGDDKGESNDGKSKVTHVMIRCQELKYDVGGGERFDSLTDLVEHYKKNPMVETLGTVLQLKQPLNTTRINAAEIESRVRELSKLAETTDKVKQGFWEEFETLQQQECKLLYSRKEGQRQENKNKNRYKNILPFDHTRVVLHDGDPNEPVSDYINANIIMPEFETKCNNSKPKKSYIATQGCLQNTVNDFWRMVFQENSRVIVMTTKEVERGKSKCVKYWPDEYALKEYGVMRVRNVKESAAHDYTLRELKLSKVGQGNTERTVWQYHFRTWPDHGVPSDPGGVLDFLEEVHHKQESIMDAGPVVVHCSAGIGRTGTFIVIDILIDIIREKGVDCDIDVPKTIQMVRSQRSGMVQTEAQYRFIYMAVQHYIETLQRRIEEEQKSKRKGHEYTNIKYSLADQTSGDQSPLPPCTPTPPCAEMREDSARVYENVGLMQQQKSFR
Chain of SHP2 catalytic domain (SHP2cat; residues 248-527) (Q06124 248-527): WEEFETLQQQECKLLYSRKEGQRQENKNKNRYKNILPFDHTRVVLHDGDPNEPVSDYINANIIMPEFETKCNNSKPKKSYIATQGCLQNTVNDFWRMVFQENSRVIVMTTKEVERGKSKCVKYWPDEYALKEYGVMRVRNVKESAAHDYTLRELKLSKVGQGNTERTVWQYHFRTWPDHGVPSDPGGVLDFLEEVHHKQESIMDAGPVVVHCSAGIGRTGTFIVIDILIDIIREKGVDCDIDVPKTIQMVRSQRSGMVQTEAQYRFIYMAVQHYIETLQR
Chain of striatal-enriched tyrosine phosphatase (STEP) catalytic domain (P54829 280-565 limits assumed): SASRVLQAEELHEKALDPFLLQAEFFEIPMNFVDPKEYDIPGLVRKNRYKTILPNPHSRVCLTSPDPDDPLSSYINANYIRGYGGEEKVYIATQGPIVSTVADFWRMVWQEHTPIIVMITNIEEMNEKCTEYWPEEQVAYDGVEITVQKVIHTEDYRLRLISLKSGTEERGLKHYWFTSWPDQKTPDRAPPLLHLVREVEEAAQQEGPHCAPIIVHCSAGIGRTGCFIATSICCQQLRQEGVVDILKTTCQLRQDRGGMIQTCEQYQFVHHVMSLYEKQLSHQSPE
Chain of PTP1B catalytic domain (P18031 1-300): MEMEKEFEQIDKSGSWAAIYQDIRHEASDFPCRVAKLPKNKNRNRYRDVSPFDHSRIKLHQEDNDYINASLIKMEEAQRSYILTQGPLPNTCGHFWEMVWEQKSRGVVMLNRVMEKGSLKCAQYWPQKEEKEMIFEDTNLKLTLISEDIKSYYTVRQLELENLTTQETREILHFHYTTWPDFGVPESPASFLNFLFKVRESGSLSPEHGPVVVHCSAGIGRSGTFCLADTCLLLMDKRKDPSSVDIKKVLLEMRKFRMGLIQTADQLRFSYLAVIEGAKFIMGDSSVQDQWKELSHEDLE

SMILES | IC50 [1, 7] [µM] | IC50 (PTP1B catalytic domain) [µM] | IC50 [2] [µM] | IC50 [3, 8] [µM] | IC50 ([3]; catalytic domain, DiFMUP at Km, read-out: SHP2 IC50) [µM] | IC50 [4] [µM] | IC50 ([1]; inactive analog used as negative control, SHP2 construct not specified, read-out: SHP2 IC50) [µM] | effect on cancer cell growth [5] | effect on cancer cell growth [6]
O=C1CCC/C1=C\c1ccc(-c2ccc(O)c(C(=O)Nc3ccccc3)c2)o1 [#03, 2-Hydroxy-5-(5-((2-oxocyclopentylidene)methyl)furan-2-yl)-N-phenylbenzamide] | 1 to 20 | 1.9 | 27 | 1 to 20 | 1.1 | 1 to 20 |  |  | 
O=C1/C(=C/c2ccc(-c3ccc(O)c(C(=O)N4CCCCC4)c3)o2)Sc2ccccc21 [#12, (Z)-2-((5-(4-Hydroxy-3-(piperidine-1-carbonyl)phenyl)furan-2-yl)methylene)benzo[b]thiophen-3(2H)-one] | 1 to 20 |  |  | 1 to 20 |  | 20 to 100 |  |  | 
CC(C)NC(=O)c1cccc(-c2ccc(/C=C3\Sc4ccccc4C3=O)o2)c1 [#20, (Z)—N-Isopropyl-3-(5-((3-oxobenzo[b]thiophen-2(3H)-ylidene)methyl)furan-2-yl)benzamide] | ≥ 100 |  |  |  |  | ≥ 100 | > 100 | no notable effects | no notable effects
O=C1/C(=C/c2ccc(-c3ccc(O)c(C(=O)O)c3)o2)CCC/C1=C\c1ccc(-c2ccc(O)c(C(=O)O)c2)o1 [#40] | ≤ 1 |  |  | ≤ 1 |  | ≤ 1 |  |  | 
O=C(/C=C/c1ccc(-c2cccc(C(=O)O)c2)o1)/C=C/c1ccc(-c2cccc(C(=O)O)c2)o1 [#41] | ≤ 1 |  |  | ≤ 1 |  | ≤ 1 |  |  | 
O=C1/C(=C/c2ccc(-c3cccc(C(=O)O)c3)o2)CC/C1=C\c1ccc(-c2cccc(C(=O)O)c2)o1 [#42] | ≤ 1 |  |  | ≤ 1 |  | ≤ 1 |  |  | 
O=C(/C=C/c1ccc(-c2ccc(O)c(C(=O)O)c2)o1)c1cccc(C(=O)/C=C/c2ccc(-c3ccc(O)c(C(=O)O)c3)o2)c1 [#43] | ≤ 1 |  |  | ≤ 1 |  | 1 to 20 |  |  | 
O=C(O)c1cccc(-c2ccc(/C=C/C(=O)c3cccc(C(=O)/C=C/c4ccc(-c5cccc(C(=O)O)c5)o4)c3)o2)c1 [#45] | 1 to 20 |  |  | 1 to 20 |  | 1 to 20 |  |  | 
N#Cc1cccc(-c2ccc(/C=C/C(=O)/C=C/c3ccc(-c4cccc(C#N)c4)o3)o2)c1 [#46] | 1 to 20 |  |  | 1 to 20 |  | 1 to 20 |  |  | 
